Test results taken from ChEMBL document CHEMBL1201862, “PubChem BioAssay data set” (2004).
Activity calls are given as the source filed them.

What was measured:
[1] = molecular target: T1, Cyclin-dependent kinase 5/CDK5 activator 1 (Homo sapiens, UniProt Q00535); test: human CDK5 activity blockade – biochemical, microfluidic mobility shift, dry powder, selectivity assay for GSK-3 alpha inhibitor project, dose response (AID 588430)
[2] = molecular target: Glycogen synthase kinase-3 beta (Homo sapiens, UniProt P49841); test: Inhibition of Human GSK-3 beta Activity Measured in Biochemical System Using Microfluidics - 2063-05_Inhibitor_Dose_DryPowder_Activity_Set2. [Related pubchem assays (depositor defined):AID2709]
Chain of Glycogen synthase kinase-3 beta (P49841 whole entry): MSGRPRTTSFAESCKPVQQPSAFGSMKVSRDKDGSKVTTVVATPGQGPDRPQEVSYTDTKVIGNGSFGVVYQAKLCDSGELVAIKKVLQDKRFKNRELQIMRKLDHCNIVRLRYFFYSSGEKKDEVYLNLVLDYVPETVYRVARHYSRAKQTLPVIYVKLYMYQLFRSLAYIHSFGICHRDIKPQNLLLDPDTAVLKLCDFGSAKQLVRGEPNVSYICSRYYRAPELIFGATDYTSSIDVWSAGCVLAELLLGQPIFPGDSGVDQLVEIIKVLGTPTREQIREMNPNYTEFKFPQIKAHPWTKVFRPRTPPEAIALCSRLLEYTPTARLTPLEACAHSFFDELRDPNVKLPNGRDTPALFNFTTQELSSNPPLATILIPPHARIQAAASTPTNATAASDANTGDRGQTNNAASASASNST

[3] = molecular target: T1, Cyclin-dependent kinase 5/CDK5 activator 1; test: blockade of human CDK5 activity – biochemical, cherry-picked samples, set 2, dose response (AID 504545)
[4] = molecular target: Glycogen synthase kinase-3 alpha (Homo sapiens, UniProt P49840); test: Inhibition of Human GSK-3 alpha Activity Measured in Biochemical System Using Microfluidics - 2063-06_Inhibitor_Dose_DryPowder_Activity_Set2. [Related pubchem assays (depositor defined):AID2709]
Chain of Glycogen synthase kinase-3 alpha (P49840 whole entry): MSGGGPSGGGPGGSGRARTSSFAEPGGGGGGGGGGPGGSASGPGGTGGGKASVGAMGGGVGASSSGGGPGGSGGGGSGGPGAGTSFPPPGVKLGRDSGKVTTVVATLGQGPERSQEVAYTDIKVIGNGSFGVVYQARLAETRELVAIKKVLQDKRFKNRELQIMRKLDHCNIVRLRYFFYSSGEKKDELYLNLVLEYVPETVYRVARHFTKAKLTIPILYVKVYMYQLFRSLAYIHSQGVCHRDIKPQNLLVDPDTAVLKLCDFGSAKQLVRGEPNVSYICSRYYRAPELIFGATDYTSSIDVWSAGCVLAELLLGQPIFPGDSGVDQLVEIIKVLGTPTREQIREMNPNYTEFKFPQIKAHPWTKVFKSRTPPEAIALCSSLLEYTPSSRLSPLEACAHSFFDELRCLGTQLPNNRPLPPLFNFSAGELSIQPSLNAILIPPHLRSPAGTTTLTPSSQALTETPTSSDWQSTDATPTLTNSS

Protein RecA = molecular target: T2, Protein RecA (Mycobacterium tuberculosis, UniProt P9WHJ3); test: Fluorescence Cell-Free Homogeneous Dose Retest to Identify Inhibitors of RecA-Intein Splicing Activity. [Related pubchem assays (depositor defined):AID2097, AID2223, AID489010, AID492950]; type: functional
T2 sequence (P9WHJ3 whole entry): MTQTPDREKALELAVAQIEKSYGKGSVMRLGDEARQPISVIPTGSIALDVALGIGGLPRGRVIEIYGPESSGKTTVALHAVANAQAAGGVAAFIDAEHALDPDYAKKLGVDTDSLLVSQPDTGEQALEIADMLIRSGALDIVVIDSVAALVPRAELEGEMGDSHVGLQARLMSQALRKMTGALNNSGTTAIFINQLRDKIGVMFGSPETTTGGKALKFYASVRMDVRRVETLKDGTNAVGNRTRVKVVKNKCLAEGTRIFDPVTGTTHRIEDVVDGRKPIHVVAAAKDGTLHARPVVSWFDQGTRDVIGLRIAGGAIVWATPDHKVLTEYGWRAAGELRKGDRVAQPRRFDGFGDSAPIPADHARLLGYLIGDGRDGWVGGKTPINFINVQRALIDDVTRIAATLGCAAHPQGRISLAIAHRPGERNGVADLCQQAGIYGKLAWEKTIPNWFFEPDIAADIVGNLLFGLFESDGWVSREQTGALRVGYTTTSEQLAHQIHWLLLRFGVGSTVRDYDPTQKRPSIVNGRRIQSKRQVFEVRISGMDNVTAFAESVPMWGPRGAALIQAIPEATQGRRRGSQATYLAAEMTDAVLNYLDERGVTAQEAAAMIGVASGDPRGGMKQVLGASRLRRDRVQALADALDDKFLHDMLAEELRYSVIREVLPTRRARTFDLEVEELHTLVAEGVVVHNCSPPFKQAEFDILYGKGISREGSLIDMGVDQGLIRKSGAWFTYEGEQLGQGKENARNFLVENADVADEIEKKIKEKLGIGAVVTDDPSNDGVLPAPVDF

[5] = OV-90 cell viability loss – plate reader, dry powder, SA8, PAX8 inhibitor project, dose response (AID 743149); type: functional, cell-based
[6] = toxicity toward immortalized ovarian surface epithelium – cell-based, plate reader, dry powder samples, cytotoxicity control for PAX8 inhibitor project, dose response (AID 743045); type: functional
Bcl-2-related protein A1 = molecular target: T3, Bcl-2-related protein A1 (Mus musculus, UniProt Q07440); type: functional;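 further: confirmatory dose–response counterscreen on Bfl-1, used to check hits from a UBC13 polyubiquitin inhibitor campaign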
T3 sequence (Q07440 whole entry): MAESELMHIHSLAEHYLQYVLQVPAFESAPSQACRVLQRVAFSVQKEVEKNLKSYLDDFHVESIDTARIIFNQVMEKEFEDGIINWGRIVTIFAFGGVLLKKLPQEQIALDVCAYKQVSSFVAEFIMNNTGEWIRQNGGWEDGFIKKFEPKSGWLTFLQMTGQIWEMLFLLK

Paired box protein Pax-8 = Paired box protein Pax-8 (Homo sapiens, UniProt Q06710); test: PAX8 transcriptional activity inhibition in RMG-I – RMG-I cells, luciferase, cherry-pick, dose response (AID 687027); type: functional, cell-based;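 further: luciferase reporter driven by Pax8 target thyroperoxidase promoter measured by SteadyGlo luminescence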
Chain of Paired box protein Pax-8 (Q06710 whole entry): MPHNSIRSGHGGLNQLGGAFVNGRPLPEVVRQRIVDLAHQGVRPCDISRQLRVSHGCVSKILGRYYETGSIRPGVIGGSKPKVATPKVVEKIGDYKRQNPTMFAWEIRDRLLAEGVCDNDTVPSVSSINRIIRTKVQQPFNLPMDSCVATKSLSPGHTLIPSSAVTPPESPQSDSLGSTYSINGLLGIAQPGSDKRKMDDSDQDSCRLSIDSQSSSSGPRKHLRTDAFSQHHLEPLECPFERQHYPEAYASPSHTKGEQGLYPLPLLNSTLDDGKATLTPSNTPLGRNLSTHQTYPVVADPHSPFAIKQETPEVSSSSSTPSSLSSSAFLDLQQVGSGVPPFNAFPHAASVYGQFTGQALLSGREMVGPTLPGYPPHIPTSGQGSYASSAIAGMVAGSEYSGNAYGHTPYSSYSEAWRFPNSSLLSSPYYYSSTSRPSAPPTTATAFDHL

[7] = A2780 cell killing – plate reader, dry powder samples, cytotoxicity control, dose response (AID 743046); type: functional, cell-based
[8] = molecular target: T4, Replicative DNA helicase DnaB (Mycobacterium tuberculosis, UniProt P9WMR3); test: DnaB intein splicing inhibitors, dose response, biochemical, cell-free fluorescence (AID 449749); type: functional
T4 sequence (P9WMR3 whole entry): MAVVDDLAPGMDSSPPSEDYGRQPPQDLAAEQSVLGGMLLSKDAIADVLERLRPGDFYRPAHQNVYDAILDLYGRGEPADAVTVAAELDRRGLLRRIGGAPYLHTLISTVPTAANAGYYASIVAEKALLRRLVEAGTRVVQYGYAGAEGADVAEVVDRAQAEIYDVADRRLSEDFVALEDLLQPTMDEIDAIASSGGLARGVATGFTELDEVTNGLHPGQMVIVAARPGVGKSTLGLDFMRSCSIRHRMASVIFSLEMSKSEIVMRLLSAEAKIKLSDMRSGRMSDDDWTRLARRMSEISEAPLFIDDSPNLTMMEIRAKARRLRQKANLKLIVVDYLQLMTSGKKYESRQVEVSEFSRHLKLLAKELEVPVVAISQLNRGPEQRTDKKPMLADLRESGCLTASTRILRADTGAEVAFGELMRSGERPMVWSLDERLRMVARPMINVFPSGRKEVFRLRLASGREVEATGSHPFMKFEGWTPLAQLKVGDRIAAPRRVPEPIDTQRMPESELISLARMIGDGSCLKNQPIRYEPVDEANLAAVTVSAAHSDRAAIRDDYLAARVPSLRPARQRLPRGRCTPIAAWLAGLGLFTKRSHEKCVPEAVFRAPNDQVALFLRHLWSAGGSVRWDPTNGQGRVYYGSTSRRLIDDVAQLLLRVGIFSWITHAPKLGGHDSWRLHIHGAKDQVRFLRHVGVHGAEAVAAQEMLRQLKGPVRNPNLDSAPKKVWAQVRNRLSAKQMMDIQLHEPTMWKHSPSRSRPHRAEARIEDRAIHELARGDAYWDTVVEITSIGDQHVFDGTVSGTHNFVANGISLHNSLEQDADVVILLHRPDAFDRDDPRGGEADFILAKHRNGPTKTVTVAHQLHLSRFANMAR

[9] = molecular target: T5, Ubiquitin-conjugating enzyme E2 N (Homo sapiens, UniProt P61088); type: functional
T5 sequence (P61088 whole entry): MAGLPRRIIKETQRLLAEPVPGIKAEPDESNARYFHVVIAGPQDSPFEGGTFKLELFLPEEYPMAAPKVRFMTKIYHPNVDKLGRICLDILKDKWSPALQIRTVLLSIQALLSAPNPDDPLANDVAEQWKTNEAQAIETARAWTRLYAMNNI

[10] = non-specific 3'UTR reporter inhibition in Clone20-Shn3RL – cell-based, Renilla luciferase, cherry-picked, counter-screen for Shn3 inhibitor project, dose response (AID 624133); type: functional
CHO = CHO cell viability loss, potency – luminescence, cytotoxicity control for TLR9-MyD88 binding inhibitor project, dose response (AID 588339); type: functional, cell-based, hamster; details: Cricetulus griseus;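 further: CHO cells stably coexpressing TLR9 and MyD88 fusions from primary screen; compound exposure lasted 48 hours before viability readout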
[11] = reduction of Shn3 3'UTR-driven luciferase in osteoblasts – cell-based, Clone20 osteoblasts, firefly luciferase, cherry-picked, dose response (AID 624132); type: functional;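 further: firefly luciferase luminescence from reporter carrying the Shn3 3'UTR in osteoblasts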
[12] = molecular target: T6, Microphthalmia-associated transcription factor (Homo sapiens, UniProt O75030); test: reducers of TRPM1 reporter luminescence, concentration series – cell-based, SK-MEL-5, cherry-picked, set 3, MITF inhibitor project, dose response (AID 493073); type: functional;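 further: SK-MEL-5 melanoma cells with luciferase driven by the MITF target TRPM1 promoter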
T6 sequence (O75030 whole entry): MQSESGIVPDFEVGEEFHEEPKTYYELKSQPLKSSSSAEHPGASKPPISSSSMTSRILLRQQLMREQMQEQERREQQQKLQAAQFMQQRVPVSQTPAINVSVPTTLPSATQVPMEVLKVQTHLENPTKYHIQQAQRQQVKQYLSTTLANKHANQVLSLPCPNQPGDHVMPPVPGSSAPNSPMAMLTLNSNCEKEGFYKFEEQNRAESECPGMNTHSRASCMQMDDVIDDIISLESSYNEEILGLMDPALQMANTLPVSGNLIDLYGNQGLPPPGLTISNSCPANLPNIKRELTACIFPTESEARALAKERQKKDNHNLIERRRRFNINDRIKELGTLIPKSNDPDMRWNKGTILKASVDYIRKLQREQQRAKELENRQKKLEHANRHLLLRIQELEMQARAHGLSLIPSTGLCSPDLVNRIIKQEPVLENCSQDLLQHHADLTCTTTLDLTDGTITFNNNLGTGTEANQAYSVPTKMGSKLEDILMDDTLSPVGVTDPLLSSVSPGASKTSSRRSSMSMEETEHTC

[13] = loss of viability in HepG2 cells – cell-based, CellTiter-Glo, cherry-picked, cytotoxicity control for Shn3 inhibitor project, dose response (AID 624134); type: functional
[14] = OVCAR-3 cell viability loss – plate reader, dry powder samples, PAX8 inhibitor project, dose response (AID 743044); type: functional, cell-based
[15] = PAX8-dependent cell viability loss – plate reader, dry powder, dose response (AID 743049); type: functional, cell-based
[16] = molecular target: T5, Ubiquitin-conjugating enzyme E2 N; type: functional; remark: listed apart in the source
Beta Lactamase = Beta Lactamase (Pseudomonas aeruginosa, UniProt Q932Y6); test: BLA reporter interference, concentration series – BLA reporter cells, FRET fluorescence, artefact control for TLR9-MyD88 binding inhibitor project, dose response (AID 588341); type: cell-based;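 further: cell based assay in CHO-K1 cells stably expressing beta-lactamase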
Chain of Beta Lactamase (Q932Y6 whole entry): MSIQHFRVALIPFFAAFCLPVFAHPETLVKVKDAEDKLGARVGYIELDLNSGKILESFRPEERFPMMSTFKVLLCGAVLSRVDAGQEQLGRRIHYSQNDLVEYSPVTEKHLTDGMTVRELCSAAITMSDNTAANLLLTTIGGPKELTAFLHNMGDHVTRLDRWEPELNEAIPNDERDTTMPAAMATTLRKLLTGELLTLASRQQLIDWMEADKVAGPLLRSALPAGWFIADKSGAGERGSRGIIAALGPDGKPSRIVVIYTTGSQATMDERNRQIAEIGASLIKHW

[17] = molecular target: ATP-binding cassette sub-family B member 6 (Homo sapiens, UniProt Q9NP58); test: ABCB6 transporter inhibitors, porphyrin accumulation, dose response, flow cytometry, K562-ABCB6 cells, cherry pick 02 (AID 624487); type: functional; details: read-out: EC50_MICROM
Chain of ATP-binding cassette sub-family B member 6 (Q9NP58 whole entry): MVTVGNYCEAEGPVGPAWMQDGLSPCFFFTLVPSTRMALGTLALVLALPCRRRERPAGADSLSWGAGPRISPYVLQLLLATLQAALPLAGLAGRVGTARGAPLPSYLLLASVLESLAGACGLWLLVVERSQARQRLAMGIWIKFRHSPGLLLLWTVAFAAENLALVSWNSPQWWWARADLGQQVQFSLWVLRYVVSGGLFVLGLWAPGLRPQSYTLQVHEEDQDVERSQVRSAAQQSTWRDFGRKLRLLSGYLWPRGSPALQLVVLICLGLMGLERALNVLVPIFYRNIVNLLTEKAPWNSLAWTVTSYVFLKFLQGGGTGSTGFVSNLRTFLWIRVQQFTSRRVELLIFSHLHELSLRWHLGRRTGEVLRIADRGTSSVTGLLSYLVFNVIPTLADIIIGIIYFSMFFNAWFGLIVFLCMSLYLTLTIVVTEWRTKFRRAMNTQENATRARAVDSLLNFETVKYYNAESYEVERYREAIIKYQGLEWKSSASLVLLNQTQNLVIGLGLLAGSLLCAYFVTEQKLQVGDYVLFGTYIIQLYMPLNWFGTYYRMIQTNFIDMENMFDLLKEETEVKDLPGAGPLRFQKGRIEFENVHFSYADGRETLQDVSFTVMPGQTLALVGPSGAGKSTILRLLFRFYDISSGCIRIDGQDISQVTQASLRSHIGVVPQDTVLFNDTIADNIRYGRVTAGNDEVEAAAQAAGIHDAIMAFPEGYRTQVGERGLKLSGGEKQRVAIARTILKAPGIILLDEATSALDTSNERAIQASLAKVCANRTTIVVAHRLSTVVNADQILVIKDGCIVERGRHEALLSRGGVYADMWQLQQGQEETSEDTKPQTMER

[18] = general cell-killing toxicity readout – plate reader, dry powder samples, cytotoxicity control for PAX8 inhibitor project, dose response (AID 743021); type: functional, cell-based
[19] = IGROV1 cell killing – plate reader, dry powder samples, PAX8 inhibitor project, dose response (AID 743043); type: functional, cell-based; details: IGROV-1
[20] = COV434 cell viability loss – plate reader, dry powder, SA7, cytotoxicity control for PAX8 inhibitor project, dose response (AID 743145); type: functional, cell-based
[21] = OVCAR4 cell viability loss – plate reader, dry powder, SA11, cytotoxicity control for PAX8 inhibitor project, dose response (AID 743150); type: functional, cell-based; details: OVCAR-4
[22] = COV362 cell viability loss – plate reader, dry powder, SA12, cytotoxicity control for PAX8 inhibitor project, dose response (AID 743144); type: functional, cell-based

T1 sequence (Q00535 whole entry): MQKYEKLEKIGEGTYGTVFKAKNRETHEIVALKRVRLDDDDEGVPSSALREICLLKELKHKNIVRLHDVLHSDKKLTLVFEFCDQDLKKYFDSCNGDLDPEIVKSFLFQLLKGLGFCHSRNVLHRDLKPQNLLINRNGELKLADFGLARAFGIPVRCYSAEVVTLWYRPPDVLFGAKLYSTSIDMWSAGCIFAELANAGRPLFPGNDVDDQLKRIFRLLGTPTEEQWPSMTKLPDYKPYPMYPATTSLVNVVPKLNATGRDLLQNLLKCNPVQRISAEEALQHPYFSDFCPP
T1 sequence (Q15078 whole entry, further chain): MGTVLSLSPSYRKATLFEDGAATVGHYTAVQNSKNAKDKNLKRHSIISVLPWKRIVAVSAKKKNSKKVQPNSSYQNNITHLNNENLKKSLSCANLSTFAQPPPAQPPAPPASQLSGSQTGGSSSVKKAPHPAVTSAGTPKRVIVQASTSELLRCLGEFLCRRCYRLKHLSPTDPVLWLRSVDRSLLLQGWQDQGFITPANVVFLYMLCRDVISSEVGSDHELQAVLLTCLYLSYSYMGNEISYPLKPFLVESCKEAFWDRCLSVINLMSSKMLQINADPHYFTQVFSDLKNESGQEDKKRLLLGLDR

Q: With `COc1ccc2nc3c(cc2c1)c(NC(=O)CC(C)C)nn3CC(C)C` as the molecule, how does the AC50 [1] read?
A: 1.4 µM (active)

Q: What about the AC50 [2] of the same molecule?
A: 0.228 µM (active)

Q: What about the AC50 [3] of the same molecule?
A: 32.7 µM (active)

Q: And the AC50 [4]?
A: 1.48 µM (active)

Q: Which results are given for `CC(=O)Nc1ccc(NC(=O)c2nc(S(=O)(=O)Cc3ccccc3)ncc2Cl)cc1`?
A: EC50 (Protein RecA): 9.36 µM (active); AC50 [5]: 30 µM (active); AC50 [6]: 18.2 µM (active); IC50 (Bcl-2-related protein A1): > 20 µM (inactive); AC50 (Paired box protein Pax-8): 9.86 µM (active); AC50 [7]: 10.2 µM (active); AC50 [8]: 11.2 µM (active); IC50 [9]: 10.9 µM (active); AC50 [10]: 6.33 µM (active); IC50 (CHO): 6.31 µM (active); AC50 [11]: 0.773 µM (active); AC50 [12]: 12.8 µM (active); AC50 [13]: 28.6 µM (active); AC50 [14]: 15.3 µM (active); AC50 [15]: 17.6 µM (active); IC50 [16]: > 20 µM (inactive); IC50 (Beta Lactamase): 7.61 µM (active); EC50 [17]: 8.72 µM (active); AC50 [18]: 20.7 µM (active); AC50 [19]: 15.8 µM (active); AC50 [20]: 12.7 µM (active); AC50 [21]: 25.9 µM (active); AC50 [22]: 23.1 µM (active)
